Article PMC3763849 (ACS medicinal chemistry letters, 2013)
“Also recorded” adds a separate entry of the source.

Key:
PBM cells = assay: Cellular pharmacology in PBM cells: intracellular nucleoside triphosphate levels; assay type: in vitro ADME, human
HIV-1LAI = assay: HIV-1 susceptibility assay in human PBM cells infected with HIV-1LAI; assay type: cell-based; settings: for fold greater potency versus HIV-1 compared to parent nucleoside: phosphoramidate versus parent nucleoside
HBV = assay: Antiviral activity against HBV in the HepAD38 cell system; assay type: cell-based
[1] = system: five tested cell lines (PBM, HepG2, Huh7, Vero, CEM); assay: Cytotoxicity across the five tested cell systems; assay type: cell-based

SMILES | formation of dioxolane-A triphosphate (PBM cells) | fold greater potency versus HIV-1 compared to parent nucleoside (HIV-1LAI) | other results
Nc1ncnc2c1ncn2[C@H]1CO[C@@H](CO)O1 [Compound 6, (−)-β-D-(2R,4R)-6-amino dioxolane adenosine] | found to form the dioxolane-A triphosphate | – | –
CCOC(=O)CCc1ccccc1OP(=O)(N[C@@H](C)C(=O)OCC)OC[C@@H]1OC[C@H](n2cnc3c(NC4CC4)ncnc32)O1 (stereo partly drawn) [Compound 23] | found to form the dioxolane-A triphosphate | – | –
CCOC(=O)[C@H](C)NP(=O)(OC[C@@H]1OC[C@H](n2cnc3c(N)ncnc32)O1)Oc1ccccc1 (stereo partly drawn) [Compound 17] | found to form the dioxolane-A triphosphate; also recorded: highest levels of dioxolane-A triphosphate | up to 3,600 fold | –
Nc1nc(N)c2ncn([C@H]3CO[C@@H](CO)O3)c2n1 [DAPD, Amdoxovir, reference compound] | – | – | activity versus HBV (HBV): low micromolar
CCOC(=O)[C@H](C)NP(=O)(OC[C@@H]1OC[C@H](n2cnc3c(OC)ncnc32)O1)Oc1ccccc1 (stereo partly drawn) [Compound 19] | – | up to 3,600 fold | –
CCOC(=O)[C@H](C)NP(=O)(OC[C@@H]1OC[C@H](n2cnc3c(NC4CC4)ncnc32)O1)Oc1ccccc1 (stereo partly drawn) [Compound 22] | found to form the dioxolane-A triphosphate | up to 3,600 fold | cytotoxicity in the five tested cell lines [1]: no observed cytotoxicity
OC[C@@H]1OC[C@H](n2cnc3c(NC4CC4)ncnc32)O1 [Compound 8] | – | – | cytotoxicity in the five tested cell lines [1]: did not display any cytotoxicity; activity versus HBV (HBV): essentially not active; activity versus HIV (HIV-1LAI): essentially not active
CCOC(=O)CCc1ccccc1OP(=O)(N[C@@H](C)C(=O)OCC)OC[C@@H]1OC[C@H](n2cnc3c(OC)ncnc32)O1 (stereo partly drawn) [Compound 20] | – | up to 3,600 fold | –
CCOC(=O)CCc1ccccc1OP(=O)(N[C@@H](C)C(=O)OCC)OC[C@@H]1OC[C@H](n2cnc3c(N)ncnc32)O1 (stereo partly drawn) [Compound 18] | found to form the dioxolane-A triphosphate; also recorded: highest levels of dioxolane-A triphosphate | up to 3,600 fold | –
